Numbered stars: 1 amine (or outer) side, 2 acyl side, 3 side chain; on linkers, the order of the positions; unused ones are H or OH. Bridge positions count the residues as written; N and C are the ends. Square brackets hold non-standard residues; d marks the D form. Peptide text beside a SMILES is read from it. * marks the point of attachment. 2Thenoyl(5-Cl) = O=C(c1ccc(Cl)s1)*; Benzoyl(4-Cl) = O=C(c1ccc(Cl)cc1)*; Cysteamide = C(CS[*:3])N[*:1]; X1 = O=C(/C=C/c1ccccc1)*; Api = NC1(C(=O)O)CCNCC1; Dap = NC[CH](N)C(=O)O; Mpa = O=C(O)CCS
Target: MDM2 (Homo sapiens, UniProt Q00987)
Test: MDM2 binding screen: displacement of fluorescent p53 peptide probe FP53 (fluorescence polarization)
Conditions: for fraction fluorescent probe displaced, Screen: initial screen; for fraction fluorescent probe displaced, Screen / fraction fluorescent probe displaced, Replicate: crude macrocycle reactions; for fraction fluorescent probe displaced: crude reaction of macrocycle scaffold with Acid 14
Outline: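 Single-point screen: one fluorescence anisotropy reading at 25 °C (485 nm excitation, 535 nm emission) per macrocycle. Crude macrocycle reactions, final 10 µM, were scored for displacing the fluorescent p53 peptide from human MDM2.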

MDM2, sequence (Q00987 whole entry): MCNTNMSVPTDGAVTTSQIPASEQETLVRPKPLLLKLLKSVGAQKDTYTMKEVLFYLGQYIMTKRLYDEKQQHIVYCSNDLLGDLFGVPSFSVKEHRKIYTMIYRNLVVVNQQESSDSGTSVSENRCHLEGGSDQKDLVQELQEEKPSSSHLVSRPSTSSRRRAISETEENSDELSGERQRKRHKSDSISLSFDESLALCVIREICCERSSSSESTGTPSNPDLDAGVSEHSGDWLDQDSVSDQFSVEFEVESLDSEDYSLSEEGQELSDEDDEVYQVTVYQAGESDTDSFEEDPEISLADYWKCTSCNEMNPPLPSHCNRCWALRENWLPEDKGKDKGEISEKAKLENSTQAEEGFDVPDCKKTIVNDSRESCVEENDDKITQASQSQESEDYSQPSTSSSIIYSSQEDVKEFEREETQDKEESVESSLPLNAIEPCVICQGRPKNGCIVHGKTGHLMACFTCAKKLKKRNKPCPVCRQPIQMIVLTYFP

Structure (SMILES) | fraction fluorescent probe displaced, Screen (Acid 91) | fraction fluorescent probe displaced, Replicate (Acid 91, replicate) | fraction fluorescent probe displaced, Screen (Acid 25) | fraction fluorescent probe displaced, Replicate (Acid 25, replicate) | other results
O=C1CCSSCCNC(=O)[C@@H]2CCCN2C(=O)[C@H](Cc2c[nH]c3ccccc23)NC(=O)C2(CCN(C(=O)/C=C/c3ccccc3)CC2)N1 [X D6 W B1 Acid 91] ([Mpa][Api](X1)WP-Cysteamide; disulfide 1-C) | 0.08 | 0.04 |  |  | 
O=C1CCNC(=O)[C@H](Cc2c[nH]c3ccccc23)NC(=O)C2(CCN(C(=O)c3ccc(Cl)cc3)CC2)NC(=O)CCSSCCN1 [X D6 W B2 Acid 25] |  |  | 0.09 | 0.10 | 
O=C1CCNC(=O)[C@H](Cc2c[nH]c3ccccc23)NC(=O)C2(CCN(C(=O)/C=C/c3ccccc3)CC2)NC(=O)CCSSCCN1 [X D6 W B2 Acid 91] | 0.14 | 0.07 |  |  | 
O=C1CCSSCCNC(=O)[C@H]2CCCN(C2)C(=O)[C@H](Cc2c[nH]c3ccccc23)NC(=O)C2(CCN(C(=O)c3ccc(Cl)cc3)CC2)N1 [X D6 W B4 Acid 25] |  |  | 0.28 | 0.22 | 
O=C1CCSSCCNC(=O)[C@H]2CCCN(C2)C(=O)[C@H](Cc2c[nH]c3ccccc23)NC(=O)C2(CCN(C(=O)/C=C/c3ccccc3)CC2)N1 [X D6 W B4 Acid 91] | 0.14 | 0.07 |  |  | 
O=C1CCSSCCNC(=O)c2cccc(c2)CNC(=O)C(Cc2c[nH]c3ccccc23)NC(=O)C2(CCN(C(=O)c3ccc(Cl)s3)CC2)N1 (stereo not drawn) [X D6 W B5 Acid 14] |  |  |  |  | fraction fluorescent probe displaced, Screen (Acid 14): 0.11; fraction fluorescent probe displaced, Replicate (Acid 14, replicate): 0.25
O=C1CCSSCCNC(=O)c2cccc(c2)CNC(=O)[C@H](Cc2c[nH]c3ccccc23)NC(=O)C2(CCN(C(=O)/C=C/c3ccccc3)CC2)N1 [X D6 W B5 Acid 91] | -0.05 | 0.07 |  |  | 
O=C1NCCSSCCC(=O)N2CCN(C(=O)c3ccc(Cl)s3)CC2C(=O)N2CCCC2C(=O)NC1Cc1c[nH]c2ccccc12 (stereo not drawn) [X D7 B1 W Acid 14] |  |  |  |  | fraction fluorescent probe displaced, Screen (Acid 14): -0.00483; fraction fluorescent probe displaced, Replicate (Acid 14, replicate): 0.07
O=C1CCNC(=O)C2CN(C(=O)c3ccc(Cl)s3)CCN2C(=O)CCSSCCNC(=O)C(Cc2c[nH]c3ccccc23)N1 (stereo not drawn) [X D7 B2 W Acid 14] |  |  |  |  | fraction fluorescent probe displaced, Screen (Acid 14): 0.11; fraction fluorescent probe displaced, Replicate (Acid 14, replicate): 0.12
O=C1CCNC(=O)C2CN(C(=O)C=Cc3ccccc3)CCN2C(=O)CCSSCCNC(=O)C(Cc2c[nH]c3ccccc23)N1 (stereo not drawn) [X D7 B2 W Acid 91] | 0.11 | 0.07 |  |  | 
O=C1NC(Cc2ccccc2)C(=O)NCCSSCCC(=O)N2CCN(C(=O)c3ccc(Cl)s3)CC2C(=O)N2CCCC1C2 (stereo not drawn) [X D7 B4 F + Acid 14] |  |  |  |  | fraction fluorescent probe displaced ((initial screen)): -0.0337; fraction fluorescent probe displaced (replicate): 0.07
O=C1NC(Cc2c[nH]c3ccccc23)C(=O)NCCSSCCC(=O)N2CCN(C(=O)C=Cc3ccccc3)CC2C(=O)N2CCCC1C2 (stereo not drawn) [X D7 B4 W Acid 91] | 0.08 | 0.07 |  |  | 
O=C1NCCSSCCC(=O)N2CCN(C(=O)c3ccc(Cl)s3)CC2C(=O)NC(Cc2ccccc2)C(=O)N2CCCC1C2 (stereo not drawn) [X D7 F B4 + Acid 14] |  |  |  |  | fraction fluorescent probe displaced ((initial screen)): 0.0241; fraction fluorescent probe displaced (replicate): -0.00432
O=C1NCCSSCCC(=O)N2CCN(C(=O)C=Cc3ccccc3)CC2C(=O)NC(Cc2ccccc2)C(=O)NCc2cccc1c2 (stereo not drawn) [X D7 F B5 Acid 91] | 0.0563 | 0.04 |  |  | 
O=C1NC(Cc2c[nH]c3ccccc23)C(=O)N2CCCC2C(=O)NCCSSCCC(=O)N2CCN(C(=O)C=Cc3ccccc3)CC12 (stereo not drawn) [X D7 W B1 Acid 91] | -0.0241 | -0.00827 |  |  | 
O=C1CCNC(=O)C(Cc2c[nH]c3ccccc23)NC(=O)C2CN(C(=O)c3ccc(Cl)s3)CCN2C(=O)CCSSCCN1 (stereo not drawn) [X D7 W B2 Acid 14] |  |  |  |  | fraction fluorescent probe displaced, Screen (Acid 14): 0.11; fraction fluorescent probe displaced, Replicate (Acid 14, replicate): 0.10
O=C1NCCSSCCC(=O)N2CCN(C(=O)C=Cc3ccccc3)CC2C(=O)NC(Cc2c[nH]c3ccccc23)C(=O)N2CCCC1C2 (stereo not drawn) [X D7 W B4 Acid 91] | 0.03 | 0.04 |  |  | 
O=C1CCSSCCNC(=O)C(CNC(=O)c2ccc(Cl)s2)NC(=O)C2CCCN2C(=O)C(Cc2ccccc2)N1 (stereo not drawn) [X F B1 D3 Acid 14] ([Mpa]FP[Dap](2Thenoyl(5-Cl))-Cysteamide; disulfide 1-C; configuration not given here) |  |  |  |  | fraction fluorescent probe displaced, Screen (Acid 14): 0.17; fraction fluorescent probe displaced, Replicate (Acid 14, replicate): 0.07
O=C(/C=C/c1ccccc1)NC[C@@H]1NC(=O)[C@@H]2CCCN2C(=O)[C@H](Cc2ccccc2)NC(=O)CCSSCCNC1=O [X F B1 D3 Acid 91] ([Mpa]FP[Dap](X1)-Cysteamide; disulfide 1-C) | 0.08 | 0.04 |  |  | 
O=C1CCSSCCNC(=O)C2(CCN(C(=O)/C=C/c3ccccc3)CC2)NC(=O)[C@@H]2CCCN2C(=O)[C@H](Cc2ccccc2)N1 [X F B1 D6 Acid 91] ([Mpa]FP[Api](X1)-Cysteamide; disulfide 1-C) | -0.05 | 0.0168 |  |  | 
O=C1CCNC(=O)[C@H](Cc2ccccc2)NC(=O)CCSSCCNC(=O)[C@H](CNC(=O)c2ccc(Cl)s2)N1 [X F B2 D3 Acid 14] |  |  |  |  | fraction fluorescent probe displaced, Screen (Acid 14): 0.14; fraction fluorescent probe displaced, Replicate (Acid 14, replicate): 0.12
O=C(/C=C/c1ccccc1)NC[C@@H]1NC(=O)CCNC(=O)[C@H](Cc2ccccc2)NC(=O)CCSSCCNC1=O [X F B2 D3 Acid 91] | 0.03 | 0.04 |  |  | 
O=C1CCSSCCNC(=O)[C@@H]2C[C@H](NC(=O)c3ccc(Cl)s3)CN2C(=O)CCNC(=O)[C@H](Cc2ccccc2)N1 [X F B2 D5 Acid 14] |  |  |  |  | fraction fluorescent probe displaced, Screen (Acid 14): 0.08; fraction fluorescent probe displaced, Replicate (Acid 14, replicate): 0.07
O=C1CCSSCCNC(=O)C2(CCN(C(=O)c3ccc(Cl)s3)CC2)NC(=O)CCNC(=O)C(Cc2ccccc2)N1 (stereo not drawn) [X F B2 D6 Acid 14] |  |  |  |  | fraction fluorescent probe displaced, Screen (Acid 14): 0.20; fraction fluorescent probe displaced, Replicate (Acid 14, replicate): 0.0465
O=C1CCSSCCNC(=O)C2(CCN(C(=O)C=Cc3ccccc3)CC2)NC(=O)CCNC(=O)C(Cc2ccccc2)N1 (stereo not drawn) [X F B2 D6 Acid 91] | 0.0563 | -0.00827 |  |  | 
O=C1CCSSCCNC(=O)C2CN(C(=O)c3ccc(Cl)s3)CCN2C(=O)CCNC(=O)C(Cc2ccccc2)N1 (stereo not drawn) [X F B2 D7 Acid 14] |  |  |  |  | fraction fluorescent probe displaced, Screen (Acid 14): 0.17; fraction fluorescent probe displaced, Replicate (Acid 14, replicate): 0.10

Now from value to compound, other results behind:

fraction fluorescent probe displaced, Screen (Acid 91) | fraction fluorescent probe displaced, Replicate (Acid 91, replicate) | fraction fluorescent probe displaced, Screen (Acid 25) | fraction fluorescent probe displaced, Replicate (Acid 25, replicate) | Structure (SMILES) | other results
 |  | 0.0569 | 0.12 | O=C1NCCSSCCC(=O)N2CCN(C(=O)c3ccc(Cl)cc3)CC2C(=O)N2CCCC2C(=O)NC1Cc1ccccc1 (stereo not drawn) [X D7 B1 F Acid 25] | 
 |  | -0.04 | 0.12 | O=C1NC(Cc2ccccc2)C(=O)NCCSSCCC(=O)N2CCN(C(=O)c3ccc(Cl)cc3)CC2C(=O)NCc2cccc1c2 (stereo not drawn) [X D7 B5 F Acid 25] | 
 |  | 0.22 | 0.20 | O=C1NC(Cc2c[nH]c3ccccc23)C(=O)NCCSSCCC(=O)N2CCN(C(=O)c3ccc(Cl)cc3)CC2C(=O)NCc2cccc1c2 (stereo not drawn) [X D7 B5 W Acid 25] | 
 |  | 0.09 | 0.07 | O=C1NC(Cc2ccccc2)C(=O)N2CCCC2C(=O)NCCSSCCC(=O)N2CCN(C(=O)c3ccc(Cl)cc3)CC12 (stereo not drawn) [X D7 F B1 Acid 25] | 
 |  | -0.00813 | 0.07 | O=C1CCNC(=O)C(Cc2ccccc2)NC(=O)C2CN(C(=O)c3ccc(Cl)cc3)CCN2C(=O)CCSSCCN1 (stereo not drawn) [X D7 F B2 Acid 25] | 
 |  | 0.12 | 0.43 | O=C1NCCSSCCC(=O)N2CCN(C(=O)c3ccc(Cl)cc3)CC2C(=O)NC(Cc2ccccc2)C(=O)NCc2cccc1c2 (stereo not drawn) [X D7 F B5 Acid 25] | 
 |  | 0.22 | 0.17 | O=C1CCNC(=O)C(Cc2c[nH]c3ccccc23)NC(=O)C2CN(C(=O)c3ccc(Cl)cc3)CCN2C(=O)CCSSCCN1 (stereo not drawn) [X D7 W B2 Acid 25] | 
 |  | 0.12 | 0.22 | O=C1CCSSCCNC(=O)C(CNC(=O)c2ccc(Cl)cc2)NC(=O)C2CCCN2C(=O)C(Cc2ccccc2)N1 (stereo not drawn) [X F B1 D3 Acid 25] ([Mpa]FP[Dap](Benzoyl(4-Cl))-Cysteamide; disulfide 1-C; configuration not given here) | 
 |  | 0.22 | 0.10 | O=C1CCSSCCNC(=O)C2(CCN(C(=O)c3ccc(Cl)cc3)CC2)NC(=O)[C@@H]2CCCN2C(=O)[C@H](Cc2ccccc2)N1 [X F B1 D6 Acid 25] ([Mpa]FP[Api](Benzoyl(4-Cl))-Cysteamide; disulfide 1-C) | 
 |  | 0.22 | 0.17 | O=C1CCNC(=O)C(Cc2ccccc2)NC(=O)CCSSCCNC(=O)C(CNC(=O)c2ccc(Cl)cc2)N1 (stereo not drawn) [X F B2 D3 Acid 25] | 
 |  | 0.12 | 0.07 | O=C1CCSSCCNC(=O)C2CC(NC(=O)c3ccc(Cl)cc3)CN2C(=O)CCNC(=O)C(Cc2ccccc2)N1 (stereo not drawn) [X F B2 D5 Acid 25] | 
 |  | -0.00813 | -0.03 | O=C1CCSSCCNC(=O)C2(CCN(C(=O)c3ccc(Cl)cc3)CC2)NC(=O)CCNC(=O)[C@H](Cc2ccccc2)N1 [X F B2 D6 Acid 25] | 
 |  | 0.12 | 0.10 | O=C1CCSSCCNC(=O)C2CN(C(=O)c3ccc(Cl)cc3)CCN2C(=O)CCNC(=O)[C@H](Cc2ccccc2)N1 (stereo partly drawn) [X F B2 D7 Acid 25] | 

Source: publication PMC9250534, “Synthesis and direct assay of large macrocycle diversities by combinatorial late-stage modification at picomole scale” (Nature Communications, 2022)
